# Measurements published in patent US9682141B2, “Combination of kinase inhibitors and uses thereof” (INTELLIKINE LLC, priority 2011, dated 2017).
# Like-named read-outs stand apart in the source and are kept apart here.
# Tests used:
# Type in all cases: biochemical
# [1] = target: PI3K α (Homo sapiens (Human), UniProt P42336); test: PI 3-Kinase (human) HTRF assay, p110α/p85α
# Description: An exemplary system is PI 3-Kinase (human) HTRF™ Assay from Upstate. […] Briefly, the assay is a time resolved FRET assay that indirectly measures PIP3 product formed by the activity of a PI3-K. The kinase reaction is performed in a microtitre plate (e.g., a 384 well microtitre plate). The total reaction volume is approximately 20 ul per well. In the first step, each well receives 2 ul of test compound in 20% dimethylsulphoxide resulting in a 2% DMSO final concentration. Next, approximately 14.5 ul of a kinase/PIP2 mixture (diluted in 1× reaction buffer) is added per well for a final concentration of 0.25-0.3 ug/ml kinase and 10 μM PIP2. The plate is sealed and incubated for 15 minutes at room temperature. To start the reaction, 3.5 ul of ATP (diluted in 1× reaction buffer) is added per well for a final concentration of 10 μM ATP. The plate is sealed and incubated for 1 hour at room temperature. The reaction is stopped by adding 5 ul of Stop Solution per well and then 5 ul of Detection Mix is added per well. The plate is sealed, incubated for 1 hour at room temperature, and then read on an appropriate plate reader. Data is analyzed and IC50s are generated using GraphPad Prism 5. For PI3K α, β, δ, and γ, the nM concentration of inhibitor to reach IC50 is provided.
# [2] = target: PI3K δ (Homo sapiens (Human), UniProt O00329); test: PI 3-Kinase (human) HTRF assay, p110δ/p85α
# [3] = target: PI3K γ (Homo sapiens (Human), UniProt P48736); test: PI 3-Kinase (human) HTRF assay, p110γ
# [4] = target: PI3K β (Homo sapiens (Human), UniProt P42338); test: PI 3-Kinase (human) HTRF assay, p110β/p85α
# [5] = PI 3-Kinase (human) HTRF assay, p110δ/p85α; conditions: read-out: PI3K γ IC50
# PI3K β, sequence (P42338 whole entry): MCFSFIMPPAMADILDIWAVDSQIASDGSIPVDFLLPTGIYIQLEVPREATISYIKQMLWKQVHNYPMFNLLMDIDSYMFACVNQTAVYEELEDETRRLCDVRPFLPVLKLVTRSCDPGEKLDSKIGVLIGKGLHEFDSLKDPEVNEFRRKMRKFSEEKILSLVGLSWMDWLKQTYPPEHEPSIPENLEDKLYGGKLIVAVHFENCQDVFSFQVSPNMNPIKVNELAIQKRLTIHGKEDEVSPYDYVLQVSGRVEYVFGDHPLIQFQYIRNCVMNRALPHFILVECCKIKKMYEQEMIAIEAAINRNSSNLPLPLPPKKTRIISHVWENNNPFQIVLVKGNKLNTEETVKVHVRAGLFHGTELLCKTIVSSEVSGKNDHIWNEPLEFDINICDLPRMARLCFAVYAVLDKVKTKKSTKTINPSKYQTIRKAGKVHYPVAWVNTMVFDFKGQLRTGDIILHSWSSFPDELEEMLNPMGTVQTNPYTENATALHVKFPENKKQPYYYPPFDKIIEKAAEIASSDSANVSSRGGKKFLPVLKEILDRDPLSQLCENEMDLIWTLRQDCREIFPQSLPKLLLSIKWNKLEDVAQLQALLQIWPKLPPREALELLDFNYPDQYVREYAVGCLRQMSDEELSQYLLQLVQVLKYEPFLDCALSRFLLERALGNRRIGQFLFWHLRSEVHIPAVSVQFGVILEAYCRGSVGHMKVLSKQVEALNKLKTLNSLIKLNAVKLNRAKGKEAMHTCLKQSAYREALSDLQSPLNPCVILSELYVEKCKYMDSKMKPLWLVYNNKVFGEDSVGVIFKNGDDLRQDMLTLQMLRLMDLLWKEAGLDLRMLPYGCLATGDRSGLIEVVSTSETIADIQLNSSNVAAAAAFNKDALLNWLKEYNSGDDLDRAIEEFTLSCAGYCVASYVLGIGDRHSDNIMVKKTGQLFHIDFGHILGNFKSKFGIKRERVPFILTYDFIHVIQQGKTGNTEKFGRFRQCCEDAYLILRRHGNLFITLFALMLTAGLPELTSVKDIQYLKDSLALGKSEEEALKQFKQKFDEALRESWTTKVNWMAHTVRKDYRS
# PI3K β, sequence (P27986 whole entry partner): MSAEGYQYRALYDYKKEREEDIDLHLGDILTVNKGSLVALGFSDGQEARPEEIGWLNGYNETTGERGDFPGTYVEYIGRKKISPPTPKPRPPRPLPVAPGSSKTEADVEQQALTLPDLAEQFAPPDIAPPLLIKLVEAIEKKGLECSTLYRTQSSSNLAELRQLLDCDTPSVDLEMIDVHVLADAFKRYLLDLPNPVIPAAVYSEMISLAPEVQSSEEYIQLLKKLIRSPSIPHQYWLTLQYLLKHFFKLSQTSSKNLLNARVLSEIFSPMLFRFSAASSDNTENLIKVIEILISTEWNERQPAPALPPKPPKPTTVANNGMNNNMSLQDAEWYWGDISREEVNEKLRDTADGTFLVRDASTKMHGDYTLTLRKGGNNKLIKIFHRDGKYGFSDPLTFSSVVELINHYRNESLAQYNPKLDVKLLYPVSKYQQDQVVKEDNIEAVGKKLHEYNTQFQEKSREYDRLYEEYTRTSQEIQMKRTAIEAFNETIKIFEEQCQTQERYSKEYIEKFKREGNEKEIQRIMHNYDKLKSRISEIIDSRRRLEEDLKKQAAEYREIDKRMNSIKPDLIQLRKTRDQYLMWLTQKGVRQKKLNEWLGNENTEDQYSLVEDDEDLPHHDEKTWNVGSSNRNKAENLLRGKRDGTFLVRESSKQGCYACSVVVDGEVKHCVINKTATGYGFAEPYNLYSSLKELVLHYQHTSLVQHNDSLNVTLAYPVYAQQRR
# PI3K α, sequence (P42336 whole entry): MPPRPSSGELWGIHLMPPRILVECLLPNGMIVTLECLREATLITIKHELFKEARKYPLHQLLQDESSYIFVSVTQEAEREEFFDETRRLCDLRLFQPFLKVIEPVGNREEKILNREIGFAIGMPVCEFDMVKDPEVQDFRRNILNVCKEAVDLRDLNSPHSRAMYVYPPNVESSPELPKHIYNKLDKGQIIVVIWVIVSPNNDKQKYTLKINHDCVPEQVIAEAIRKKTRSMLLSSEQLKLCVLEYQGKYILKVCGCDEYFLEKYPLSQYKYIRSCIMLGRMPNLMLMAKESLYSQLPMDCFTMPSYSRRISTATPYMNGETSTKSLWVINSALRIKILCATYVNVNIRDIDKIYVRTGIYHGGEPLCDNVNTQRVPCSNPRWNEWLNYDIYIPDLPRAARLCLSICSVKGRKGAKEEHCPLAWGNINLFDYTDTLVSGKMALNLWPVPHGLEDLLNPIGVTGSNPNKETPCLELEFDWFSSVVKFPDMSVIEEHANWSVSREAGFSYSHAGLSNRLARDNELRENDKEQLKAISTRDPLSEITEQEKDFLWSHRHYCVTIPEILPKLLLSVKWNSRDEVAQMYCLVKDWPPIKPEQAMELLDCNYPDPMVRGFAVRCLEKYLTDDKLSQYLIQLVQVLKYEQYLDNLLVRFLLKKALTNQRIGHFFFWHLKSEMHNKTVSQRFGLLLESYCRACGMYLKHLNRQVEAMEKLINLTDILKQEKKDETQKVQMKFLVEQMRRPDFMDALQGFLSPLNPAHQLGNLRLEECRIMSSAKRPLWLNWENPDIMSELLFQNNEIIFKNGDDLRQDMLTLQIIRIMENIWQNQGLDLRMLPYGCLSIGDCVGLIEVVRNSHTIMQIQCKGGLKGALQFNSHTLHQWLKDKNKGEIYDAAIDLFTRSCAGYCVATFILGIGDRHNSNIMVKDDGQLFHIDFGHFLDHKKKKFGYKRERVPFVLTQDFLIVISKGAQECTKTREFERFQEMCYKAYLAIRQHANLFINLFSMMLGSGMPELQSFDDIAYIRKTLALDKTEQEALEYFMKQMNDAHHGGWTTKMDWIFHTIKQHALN
# PI3K α, sequence (P27986 whole entry partner): as the sequence (P27986 whole entry partner) above
# PI3K δ, sequence (O00329 whole entry): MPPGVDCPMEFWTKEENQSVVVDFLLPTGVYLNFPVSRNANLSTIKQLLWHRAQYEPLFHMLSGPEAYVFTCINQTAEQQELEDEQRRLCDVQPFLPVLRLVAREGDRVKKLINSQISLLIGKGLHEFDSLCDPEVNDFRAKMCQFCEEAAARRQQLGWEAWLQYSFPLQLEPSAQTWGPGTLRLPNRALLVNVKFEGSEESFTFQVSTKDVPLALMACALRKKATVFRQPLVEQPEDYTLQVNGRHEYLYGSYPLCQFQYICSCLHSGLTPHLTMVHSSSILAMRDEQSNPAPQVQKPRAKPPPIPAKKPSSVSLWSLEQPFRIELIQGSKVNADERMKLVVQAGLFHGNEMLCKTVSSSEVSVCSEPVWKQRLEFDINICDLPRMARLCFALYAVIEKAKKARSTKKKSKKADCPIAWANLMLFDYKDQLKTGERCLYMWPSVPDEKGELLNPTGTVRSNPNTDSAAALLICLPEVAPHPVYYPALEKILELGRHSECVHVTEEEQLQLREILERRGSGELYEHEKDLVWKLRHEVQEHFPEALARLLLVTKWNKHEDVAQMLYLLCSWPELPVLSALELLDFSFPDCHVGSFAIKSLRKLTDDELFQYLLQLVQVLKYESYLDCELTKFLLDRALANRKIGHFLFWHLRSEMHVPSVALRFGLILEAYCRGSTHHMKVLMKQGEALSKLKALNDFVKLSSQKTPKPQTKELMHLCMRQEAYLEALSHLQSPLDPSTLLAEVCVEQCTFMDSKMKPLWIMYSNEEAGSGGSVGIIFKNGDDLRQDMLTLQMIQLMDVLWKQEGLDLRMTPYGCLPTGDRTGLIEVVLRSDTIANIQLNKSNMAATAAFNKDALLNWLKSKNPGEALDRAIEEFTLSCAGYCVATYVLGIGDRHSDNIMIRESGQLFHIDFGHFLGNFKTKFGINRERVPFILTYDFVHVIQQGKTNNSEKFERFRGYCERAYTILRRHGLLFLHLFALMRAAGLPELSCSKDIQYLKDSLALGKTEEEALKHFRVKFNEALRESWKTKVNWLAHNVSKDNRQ
# PI3K δ, sequence (P27986 whole entry partner): as the sequence (P27986 whole entry partner) above
SMILES,IC50 [1],IC50 [2],IC50 ([3]; read-out: PI3K γ IC50),IC50 [4],IC50 [5],IC50 ([3]; read-out: PI3K δ IC50)
Nc1nc2cc(-c3ccc4ncc(N5CC(N6CCNCC6)C5)nc4n3)ccc2o1,< 1000 nM,> 10000 nM,> 10000 nM,> 10000 nM,,
CS(=O)(=O)N1CCN(C2CN(c3cnc4ccc(-c5ccc6oc(N)nc6c5)nc4n3)C2)CC1,< 100 nM,< 10000 nM,< 1000 nM,> 10000 nM,,
CCOC(=O)N1CCN(c2cnc3ccc(-c4ccc5oc(N)nc5c4)nc3n2)CC1,< 100 nM,< 1000 nM,< 1000 nM,< 1000 nM,,
Nc1nc2cc(-c3ccc4ncc(C#CC5CC5)n4c3)ccc2o1 [Compound 39],< 100 nM,< 100 nM,< 100 nM,,,
Nc1nc2cc(-c3ccc4ncc(N5CCC(F)(F)CC5)nc4n3)ccc2o1,< 100 nM,> 10000 nM,< 100 nM,> 10000 nM,,
CC(=O)Nc1cn2cc(-c3ccc4nccc(-c5ccncc5)c4c3)ccc2n1 [Compound 19],> 10000 nM,> 10000 nM,> 10000 nM,> 10000 nM,,
Nc1nc2cc(-c3ccc4nccc(NCCN5CCOCC5)c4c3)ccc2o1 [Compound 33],< 100 nM,< 1000 nM,< 1000 nM,,,
Nc1nc2ccc(-c3ccc4ncc(N5CCOCC5)nc4c3)cc2s1,< 100 nM,> 10000 nM,< 1000 nM,> 10000 nM,,
Nc1nc2cc(-c3ccc4ncc(C(=O)Nc5cccnc5)n4c3)ccc2o1,< 100 nM,< 1000 nM,< 100 nM,> 10000 nM,,
CC(=O)NC1CCN(C(=O)c2cnc3ccc(-c4ccc5oc(N)nc5c4)cn23)CC1,< 1000 nM,< 10000 nM,< 10000 nM,< 10000 nM,,
Nc1nc2cc(-c3ccc4ncc(N5CCCCC5)nc4c3)ccc2o1,< 100 nM,> 10000 nM,< 10000 nM,> 10000 nM,,
CC1CN(c2cnc3ccc(-c4ccc5oc(N)nc5c4)cc3n2)CC(C)N1 (stereo not drawn),< 1000 nM,< 1000 nM,< 1000 nM,< 1000 nM,,
Nc1nc2cc(-c3ccc4ncc(-c5ccc(N6CCOCC6)nc5)nc4c3)ccc2o1,< 10000 nM,> 10000 nM,> 10000 nM,> 10000 nM,,
Nc1nc2cc(-c3ccc4ncc(N5CC(N6CCN(C7CC7)CC6)C5)nc4n3)ccc2o1,< 100 nM,< 10000 nM,< 10000 nM,< 10000 nM,,
Nc1nc2cc(-c3ccc4ncc(N5CC(N6C7CCC6COC7)C5)nc4n3)ccc2o1,< 10000 nM,> 10000 nM,> 10000 nM,> 10000 nM,,
C[C@@H]1CN(C(=O)c2cnc3ccc(-c4ccc5oc(N)nc5c4)cn23)C[C@H](C)O1,< 10000 nM,> 10000 nM,< 10000 nM,> 10000 nM,,
Nc1nc2cc(-c3ccc4ncc(N5CC(N6CC7CCC(C6)O7)C5)nc4n3)ccc2o1,< 1000 nM,> 10000 nM,< 10000 nM,> 10000 nM,,
CN1CCC(Oc2ncnc3ccc(-c4ccc5oc(N)nc5c4)cc23)CC1 [Compound 34],< 100 nM,< 1000 nM,< 100 nM,,,
CN1CCN(c2cc(-c3ccnc4ccc(-c5ccc6oc(N)nc6c5)cc34)ccn2)CC1 [Compound 30],< 100 nM,< 100 nM,< 100 nM,,,

SMILES,IC50 [1],IC50 [2],IC50 ([3]; read-out: PI3K γ IC50),IC50 [4],IC50 [5],IC50 ([3]; read-out: PI3K δ IC50)
Nc1nc2cc(-c3ccc4ncc(-c5cccnc5)n4c3)ccc2o1 [Compound 37],< 100 nM,< 100 nM,< 100 nM,,,
Nc1nc2cc(-c3ccc4nccc(-c5cccnc5)c4c3)ccc2o1 [Compound 31],< 100 nM,< 100 nM,< 100 nM,,,
CN1CCN(c2cc(-c3cnc4ccc(-c5ccc6oc(N)nc6c5)cn34)ccn2)CC1 [Compound 43],< 100 nM,< 100 nM,< 100 nM,,,
CC(=O)N1CCC(n2cnc3ccc(-c4ccc5oc(N)nc5c4)cc3c2=O)CC1,< 10000 nM,> 10000 nM,> 10000 nM,,,
Nc1nc2cc(-c3ccc4ncnc(N5CCC(O)CC5)c4c3)ccc2o1 [Compound 29],< 100 nM,< 100 nM,< 100 nM,,,
Nc1nc2cc(-c3ccc4nccc(NC5CCOCC5)c4c3)ccc2o1 [Compound 32],< 10000 nM,> 10000 nM,< 10000 nM,,,
Nc1nc2cc(-c3ccc4nccc(N5CCOCC5)c4c3)ccc2o1 [Compound 28],< 100 nM,< 1000 nM,< 100 nM,,,
Nc1nc2cc(-c3ccc4ncc(C(=O)N5CC(N6CCC(F)(F)C6)C5)n4c3)ccc2o1,< 100 nM,,,> 10000 nM,< 10000 nM,< 1000 nM
Nc1nc2cc(-c3ccc4ncc(N5CCC(O)C5)nc4c3)ccc2o1 (stereo not drawn),< 100 nM,,,< 1000 nM,< 10000 nM,< 100 nM
CCN(CC)CCCNc1cnc2ccc(-c3ccc4oc(N)nc4c3)cc2n1,< 100 nM,,,< 1000 nM,< 100 nM,< 1000 nM
Nc1ncc(-c2ccc3ncc(C(=O)N4CCOCC4)n3c2)cc1C(F)(F)F,< 10000 nM,,,> 10000 nM,> 10000 nM,> 10000 nM
COc1ncc(-c2ccc3ncc(C(=O)N4CCOCC4)n3c2)cc1NS(=O)(=O)c1ccccc1F,< 100 nM,,,< 10000 nM,< 1000 nM,< 100 nM
CC(C)[C@H](N)C(=O)N1CCN(c2cnc3ccc(-c4ccc5oc(N)nc5c4)cc3n2)CC1,< 100 nM,,,< 1000 nM,< 1000 nM,< 10000 nM
COc1ncc(-c2ccc3ncc(C(=O)N4CCOCC4)n3c2)cc1NS(=O)(=O)c1cccc(F)c1,< 100 nM,,,< 1000 nM,< 100 nM,< 100 nM
Nc1nc2cc(-c3ccc4nccc(CCN5CCOCC5)c4c3)ccc2o1 [Compound 27],< 1000 nM,< 10000 nM,< 100 nM,,,
Nc1nc2cc(-c3ccc4ncc(N5CC(C(=O)NC6CC6)C5)nc4c3)ccc2o1,< 100 nM,,,< 1000 nM,< 10000 nM,< 1000 nM
Nc1nc2cc(-c3ccc4ncc(N5CC(N6CCOCC6)C5)nc4c3)cc(Cl)c2o1,< 100 nM,,,< 1000 nM,< 1000 nM,< 1000 nM
Nc1nc2cc(-c3ccc4ncc(C(=O)N5CCC(N)CC5)n4c3)ccc2o1,< 100 nM,,,< 1000 nM,> 10000 nM,> 10000 nM
Cc1ccn(C2CCN(c3cnc4ccc(-c5ccc6oc(N)nc6c5)cc4n3)CC2)n1,< 100 nM,,,> 10000 nM,> 10000 nM,< 1000 nM

SMILES,IC50 [1],IC50 [2],IC50 ([3]; read-out: PI3K γ IC50),IC50 [4],IC50 [5],IC50 ([3]; read-out: PI3K δ IC50)
Nc1nc2cc(-c3ccc4ncc(C(=O)N5CCN(C6CC6)CC5)n4c3)ccc2o1,< 100 nM,,,< 10000 nM,< 10000 nM,< 10000 nM
CC(=O)N1CCC(Nc2ncnc3ccc(-c4ccc5oc(N)nc5c4)nc23)CC1,< 100 nM,,,< 100 nM,< 100 nM,< 100 nM
Nc1nc2cccc(-c3ccc4nccc(-c5ccncc5)c4c3)c2s1 [Compound 17],,< 1000 nM,< 100 nM,< 1000 nM,,
Nc1nc2cc(-c3ccc4ncc(N5CCN(C(=O)[C@H]6CCCN6)CC5)nc4c3)ccc2o1,< 100 nM,,,< 100 nM,< 100 nM,< 100 nM
CC1(C)CN(c2cnc3ccc(-c4ccc5oc(N)nc5c4)cc3n2)CCN1,< 1000 nM,,,< 1000 nM,< 10000 nM,< 10000 nM
Cc1nccn1C1CCN(c2cnc3ccc(-c4ccc5oc(N)nc5c4)cc3n2)CC1,< 100 nM,,,< 10000 nM,< 1000 nM,< 10000 nM
CC(=O)Nc1nc2cc(-c3ccc4oc(N)nc4c3)ccc2s1,> 10000 nM,,,> 10000 nM,> 10000 nM,< 100 nM
Nc1nc2cc(-c3ccc4sc(N)nc4c3)ccc2o1,< 10000 nM,,,< 1000 nM,< 10000 nM,< 1000 nM
Nc1nc2cc(-c3ccc4nccc(-c5cn[nH]c5)c4c3)ccc2o1 [Compound 20],< 100 nM,< 100 nM,,< 100 nM,,
O=C(c1cnc2ccc(-c3cncc(NS(=O)(=O)c4ccccc4)c3)cn12)N1CCOCC1,< 1000 nM,,,> 10000 nM,< 10000 nM,< 1000 nM
Nc1nc2cc(-c3ccc4ncc(N5CC(O)C5)nc4c3)ccc2o1,< 100 nM,,,< 1000 nM,< 10000 nM,< 100 nM
O=C(c1cnc2ccc(-c3cccc(S(=O)(=O)Nc4cc(F)ccc4F)c3)cn12)N1CCOCC1,> 10000 nM,,,> 10000 nM,> 10000 nM,> 10000 nM
Nc1nc2cc(-c3ccc4ncc(-c5cn[nH]c5)n4c3)ccc2o1 [Compound 38],< 100 nM,< 100 nM,< 100 nM,,,
C[C@H]1CN(C(=O)C2CN(c3cnc4ccc(-c5ccc6oc(N)nc6c5)cc4n3)C2)CCN1,< 100 nM,,,< 10000 nM,< 10000 nM,< 1000 nM
CN1CCC(n2cnc3ccc(-c4cnc(Cl)c(NS(C)(=O)=O)c4)cc3c2=O)CC1,< 100 nM,,,< 10000 nM,< 1000 nM,> 10000 nM
Nc1nc2cc(-c3ccc4ncc(N5CC(N6CCCC6)C5)nc4c3)ccc2o1,< 1000 nM,,,< 10000 nM,< 10000 nM,< 10000 nM
Nc1nc2cc(-c3ccc4ncc(N5CC(n6ccnc6)C5)nc4c3)ccc2o1,< 100 nM,,,< 1000 nM,< 10000 nM,< 1000 nM
Cc1cc(-c2ccc3oc(N)nc3c2)cc2c(C(=O)N3CCOCC3)cnn12,< 1000 nM,,,< 10000 nM,< 10000 nM,< 1000 nM
NC(=O)[C@@H]1CCCN1c1cnc2ccc(-c3ccc4oc(N)nc4c3)cc2n1,< 100 nM,,,> 10000 nM,> 10000 nM,> 10000 nM
